Holding throughout (test): microbe, parasite or virus in culture
Assay [1] relates to E. coli strain 264 (MLST 131, No ESBL). The format is cell-based. The settings on record: Escherichia coli, E. coli 264, read-out: MIC. The protocol: (§1) The efficacy of these new BLIs was also evaluated against 18 genetically diverse WGS-characterized collection of OXA-48-positive Enterobacterales recovered as part of the Carbapenem-resistant Enterobacterales Genome Database Project (https://genomes.cnag.cat/incredble) listed in Table S2 ([13]). Combinations of clinical isolates (five pairs of Klebsiella pneumoniae, two pairs of Enterobacter cloacae, and two pairs of E. coli) were chosen for analysis: (i) nine strains carrying ESBLs; and (ii) nine strains (genetically closer available strains) without ESBLs.
(§2) The MICs of each of the individual compounds (antibiotics or inhibitors) were also determined. The MICs were determined for the E. coli isogenic expressing OXA-48 (and both OXA-48 and CTX-M-14) to assess their activity against the carbapenemase; MICs were also determined for the 18 Enterobacterales clinical isolates in order to evaluate the new inhibitors against also their resistance concomitant mechanisms. The MICs were determined in triplicate experiments, and the EUCAST 13.0 clinical breakpoints were followed (http://www.eucast.org/clinical_breakpoints).
(§3) For comparative evaluation of the activity of each inhibitor alone against the carbapenemase OXA-48, all inhibitors (at 4 mg/L) were tested in the presence of a carbapenem (ertapenem, adequate substrate) and a cephalosporin (ceftazidime, poor substrate) as reporter substrates. This prevented any possible masking effect produced by the different partner antibiotics. These assays were also performed with isogenic transformants and clinical isolates.

In assay [2] the test system is K. pneumoniae strain 170 (MLST 307, No ESBL). The format is cell-based. The settings on record: Klebsiella pneumoniae, K. pneumoniae 170, read-out: MIC. The protocol: as §1, §2, §3
For assay [3], the system named is K. pneumoniae strain 238 (MLST 15, ESBL). Type of assay: cell-based. The settings on record: Klebsiella pneumoniae. The protocol: as §1, §2, §3
Assay [4] deals with E. cloacae strain 235 (MLST 171, ESBL). The format is cell-based. The settings on record: Enterobacter cloacae. The protocol:
as §1, §2, §3

Assay [5] has as its system E. coli strain 224 (MLST 127, No ESBL). The format is cell-based. The settings on record: Escherichia coli, E. coli 224, read-out: MIC. The protocol: as §1, §2, §3
Assay [6] relates to K. pneumoniae strain 125 (MLST 307, ESBL). The format is cell-based. The settings on record: Klebsiella pneumoniae. The protocol:
as §1, §2, §3

In assay [7] the test system is E. cloacae strain 231 (MLST 171, No ESBL). The format is cell-based. The settings on record: Enterobacter cloacae, E. cloacae 231, read-out: MIC. The protocol: as §1, §2, §3
In assay [8] the test system is K. pneumoniae strain 19 (MLST 11, ESBL). The format is cell-based. The settings on record: Klebsiella pneumoniae. Here is the method: as §1, §2, §3
Assay [9] deals with E. cloacae strain 272 (MLST 78, ESBL). Type of assay: cell-based. The settings on record: Enterobacter cloacae. Here is the method: as §1, §2, §3
The subject of assay [10] is E. cloacae strain 281 (MLST 78, No ESBL). The format is cell-based. The settings on record: Enterobacter cloacae, E. cloacae 281, read-out: MIC. The protocol:
as §1, §2, §3

Assay [11] has as its system K. pneumoniae strain 237 (MLST 147, No ESBL). The format is cell-based. The settings on record: Klebsiella pneumoniae, K. pneumoniae 237, read-out: MIC. The protocol: as §1, §2, §3
The subject of assay [12] is K. pneumoniae strain 71 (MLST 15, No ESBL). Type of assay: cell-based. The settings on record: Klebsiella pneumoniae, K. pneumoniae 71, read-out: MIC. The protocol: as §1, §2, §3
Assay [13] concerns E. coli strain 103 (MLST 10, ESBL). The format is cell-based. The settings on record: Escherichia coli. Here is the method:
as §1, §2, §3

Assay [14] deals with K. pneumoniae strain 413 (MLST 147, ESBL). The format is cell-based. The settings on record: Klebsiella pneumoniae. The protocol: as §1, §2, §3
Assay [15] has as its system E. coli strain 177 (MLST 131, ESBL). The format is cell-based. The settings on record: Escherichia coli. Here is the method:
as §1, §2, §3

Assay [16] deals with K. pneumoniae strain 23 (MLST 392, ESBL). The format is cell-based. The settings on record: Klebsiella pneumoniae. Here is the method:
as §1, §2, §3

Assay [17] has as its system K. pneumoniae strain 194 (MLST 392, No ESBL). Type of assay: cell-based. The settings on record: Klebsiella pneumoniae, K. pneumoniae 194, read-out: MIC. Here is the method: as §1, §2, §3
In assay [18] the test system is K. pneumoniae strain 497 (MLST 11, No ESBL). The format is cell-based. The settings on record: Klebsiella pneumoniae, K. pneumoniae 497, read-out: MIC. Here is the method: as §1, §2, §3
In a further assay the test system is E. coli HB4 ΔompC/F. Type of assay: cell-based, Escherichia coli. The settings on record: Escherichia coli.
Text: (§4) The E. coli HB4 strain was used to gain a more complete perspective, by evaluating the involvement in resistance of a low permeability background with the carbapenemase OXA-48, as well as coproduction of an ESBL and the carbapenemase; thus, the ESBL CTX-M-14 and OXA-48 were cloned together and separately into E. coli HB4. The characteristics of these strains and transformants are summarized in Table S1, and the cloning procedures are outlined in the supplemental methods.
as §2, §3

For assay [19], the system named is E. coli HB4 ΔompC/F (OXA-48). Type of assay: cell-based, Escherichia coli. The settings on record: Escherichia coli.
Text: as §4, §2, §3

Assay [20] has as its system E. coli HB4 ΔompC/F (CTX-M-14). The format is cell-based, Escherichia coli. The settings on record: Escherichia coli.
Text: as §4, §2, §3

Assay [21] concerns E. coli HB4 ΔompC/F (CTX-M-14 + OXA-48). Type of assay: cell-based, Escherichia coli. The settings on record: Escherichia coli.
Text: as §4, §2, §3

For the next assay, the system named is E. coli TG1 (OXA-48). Type of assay: cell-based, Escherichia coli. The settings on record: Escherichia coli. The protocol: as §2, §3
The subject of the next assay is E. coli TG1. The format is cell-based. The settings on record: Escherichia coli. The protocol: as §2, §3
Setting [22] is: BL alone or BL/BLI: AVI, REL, TAN, DUR 4 mg/L, VAB, XER 8 mg/L, ZID, NAC 1:1.

Converted amounts (≈) assume the structure as drawn. Where two headings read alike, the source gives them in different places.

The text below walks through data of article PMC11823609, “Advancements in the fight against globally distributed OXA-48 carbapenemase: evaluating the new generation of carbapenemase inhibitors” (Antimicrobial Agents and Chemotherapy, 2025).

For the molecule `C[C@@H](O)[C@H]1C(=O)N2C(C(=O)O)=C(S[C@@H]3CN[C@H](C(=O)N(C)C)C3)[C@H](C)[C@H]12` [MER, meropenem], the MIC in assay [1] (setting [22]) is 1 µg/mL; in assay [2] (setting [22]) it was 1 µg/mL; in assay [3] it was 1 µg/mL; in assay [4] it was 128 µg/mL; in assay [5] (setting [22]) it was 0.5 µg/mL; in [6], 2 µg/mL. Also, the MIC in assay [7] (setting [22]) is 1 µg/mL; in assay [8], 1 µg/mL; in assay [9], 1 µg/mL; in assay [10] (setting [22]), 1 µg/mL; in [11] (setting [22]), 1 µg/mL; in assay [12] (setting [22]) it was 2 µg/mL. Besides, the MIC worked out at 0.25 µg/mL in [13]; 16 µg/mL in [14]; 0.5 µg/mL in assay [15]; 1 µg/mL in assay [16]; 2 µg/mL in [17] (setting [22]); 1 µg/mL in assay [18] (setting [22]). Moreover, the MIC is 0.12 µg/mL (≈ 0.313 µM) in the assay with E. coli HB4 ΔompC/F; 32 µg/mL (≈ 83.4 µM) in assay [19]; 0.5 µg/mL (≈ 1.3 µM) in assay [20]; 32 µg/mL (≈ 83.4 µM) in assay [21]; at most 0.06 µg/mL against E. coli TG1 (OXA-48); at most 0.06 µg/mL against E. coli TG1 (setting [22]).
For the molecule `CO/N=C(\C(=O)N[C@@H]1C(=O)N2C(C(=O)[O-])=C(C[N+]3(C)CCCC3)CS[C@H]12)c1csc(N)n1` [FEP, cefepime], the MIC is 0.25 µg/mL in [2] (setting [22]); 0.5 µg/mL in [5] (setting [22]); 0.5 µg/mL in assay [11] (setting [22]); 0.5 µg/mL in assay [12] (setting [22]); 128 µg/mL in assay [14]; at least 256 µg/mL in assay [15]. Moreover, the MIC in [16] is 32 µg/mL; in assay [17] (setting [22]), 0.25 µg/mL; in [18] (setting [22]) it was 0.5 µg/mL; in the assay on E. coli HB4 ΔompC/F it was 1 µg/mL (≈ 2.08 µM); against E. coli TG1 (OXA-48), at most 0.06 µg/mL; with E. coli TG1 (setting [22]), at most 0.06 µg/mL.
Regarding `O=C(NC1CCNCC1)[C@@H]1CC[C@@H]2CN1C(=O)N2OS(=O)(=O)O` [Relebactam, relebactam], the MIC in assay [1] (β-lactamase inhibitor alone), in assay [2] (β-lactamase inhibitor alone), in assay [3], in [4], in assay [5] (β-lactamase inhibitor alone) and in assay [6] was at least 128 µg/mL in each case. In addition, the MIC in [7] (β-lactamase inhibitor alone), in assay [8], in assay [9], in assay [10] (β-lactamase inhibitor alone), in [11] (β-lactamase inhibitor alone) and in [12] (β-lactamase inhibitor alone) was at least 128 µg/mL each time. Moreover, the MIC in assay [13], in assay [14], in [15], in assay [16], in assay [17] (β-lactamase inhibitor alone) and in assay [18] (β-lactamase inhibitor alone) was at least 128 µg/mL in each case. The MIC was at least 128 µg/mL with E. coli HB4 ΔompC/F; at least 128 µg/mL in assay [19]; at least 128 µg/mL in assay [20]; at least 128 µg/mL in [21]; 64 µg/mL (≈ 184 µM) in the assay on E. coli TG1 (OXA-48); 32 µg/mL (≈ 91.9 µM) in the assay on E. coli TG1 (β-lactamase inhibitor alone).
On to `C[C@@H](O)[C@H]1C(=O)N2C(C(=O)O)=C(SCCN=CN)C[C@H]12` [IMP, imipenem], for which the MIC was 0.5 µg/mL in assay [1] (setting [22]); 4 µg/mL in [2] (setting [22]); 2 µg/mL in assay [3]; at least 256 µg/mL in [4]; 2 µg/mL in [5] (setting [22]); 4 µg/mL in assay [6]. For the same molecule, the MIC in [7] (setting [22]) stood at 2 µg/mL; in assay [8], 1 µg/mL; in assay [9], 2 µg/mL; in [10] (setting [22]), 8 µg/mL; in assay [11] (setting [22]), 2 µg/mL; in assay [12] (setting [22]), 2 µg/mL. Besides, the MIC in assay [13] stood at 2 µg/mL; in assay [14] it was 16 µg/mL; in assay [15] it was 2 µg/mL; in assay [16], 4 µg/mL; in [17] (setting [22]), 2 µg/mL; in assay [18] (setting [22]), 4 µg/mL. Moreover, the MIC is at most 0.06 µg/mL against E. coli HB4 ΔompC/F; 16 µg/mL (≈ 53.4 µM) in assay [19]; 0.25 µg/mL (≈ 0.835 µM) in assay [20]; 16 µg/mL (≈ 53.4 µM) in [21]; 0.12 µg/mL (≈ 0.401 µM) with E. coli TG1 (OXA-48); at most 0.06 µg/mL against E. coli TG1 (setting [22]).
